This passage reports IC50 and DC50 results from patent publication EP4631940A1, “COMPOUND TARGETING PAN-KRAS PROTEIN DEGRADATION AGENT AND USE THEREOF” (Betta Pharmaceuticals Co., Ltd., priority 2022, dated 2024).

Like-named read-outs stand apart in the source and are kept apart here.

One experiment relates to AGS. Description: Cell proliferation experiment (CellTiter-Glo). The format is cell-based. The note with it: read-out: IC50(nM) AGS.
A further experiment concerns SW620. The experiment can be described thus: Cell proliferation experiment (CellTiter-Glo). It is filed as cell-based. The settings on record: read-out: IC50(nM) SW620. A general note: ATP-based viability assays read luminescence as a measure of living cells.
A further experiment has as its target KRAS G12D (Homo sapiens, UniProt P01116, G12D).
Where [1] appears, read: AGS, KRAS mutation type G12D, 96 h incubation.
Where [2] appears, read: SW620, KRAS mutation type G12V, 96 h incubation.

Usually IC50 stands for the concentration at which inhibition is half-maximal.

Sequence of KRAS G12D (P01116 1-188 isoform P01116-2 G12D): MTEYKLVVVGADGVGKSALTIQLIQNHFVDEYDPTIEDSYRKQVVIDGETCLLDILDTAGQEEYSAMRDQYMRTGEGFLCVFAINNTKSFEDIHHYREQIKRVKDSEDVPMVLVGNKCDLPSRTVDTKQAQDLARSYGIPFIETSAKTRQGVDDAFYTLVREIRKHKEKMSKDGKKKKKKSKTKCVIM

Turning to “(2S,4R)-1-((S)-2-(4-(5-(3-(1-(((7-(8-ethyl-7-fluoro-3-hydroxynaphthalen-1-yl)-8-fluoro-4-((R)-3 -hydroxy-3-methylpiperidin-1-yl)pyrido[4,3-d]pyrimidin-2-yl)-3-methylbutanoyl)-4-hydroxy-N-((S)-1-(4-(4-methylthiazol-5-yl)phenyl)ethyl)pyrrolidine-2-carboxamide [Compound 200]”, the 50% inhibitory concentration (IC50) in the experiment on AGS (setting [1]) was 4.6 nM; in the experiment with SW620 (setting [2]) it was 20 nM.
In the case of “(2S,4R)-1-((S)-2-(4-(5-(2-(4-((1-((7-(8-ethyl-7-fluoro-3-hydroxynaphthalen-1-yl)-8-fluoro-4-((R )-3-hydroxy-3-methylpiperidin-1-yl)pyrido[4,3-d]pyrimidin-2-yl)oxy)methyl)cyclopropyl)methy l)piperazin-1-yl)-2-oxyethyl)pyrazin-2-yl)-1H-1,2,3-triazol-1-yl)-3-methylbutanoyl)-4-hydroxy-N-((S)-1-(4-(4-methylthiazol-5-yl)phenyl)ethyl)pyrrolidine-2-carboxamide [Compound 174]”, the IC50 is 8 nM in the experiment on AGS (setting [1]) and 59 nM with SW620 (setting [2]).
As for “(2S,4R)-1-((S)-2-(4-(5-(2-(4-((1-(((7-(8-ethyl-7-fluoro-3-hydroxynaphthalen-1-yl)-8-fluoro-4-(( R)-3-hydroxy-3-methylpiperidin-1-yl)pyrido[4,3-d]pyrimidin-2-yl)oxy)methyl)cyclopropyl)meth yl)piperazin-1-yl)ethyl)pyrazin-2-yl)-1H-1,2,3-triazol-1-yl)-3-methylbutanoyl)-4-hydroxy-N-((S )-1-(4-(4-methylthiazol-5-yl)phenyl)ethyl)pyrrolidine-2-carboxamide [Compound 191]”, the figures for the 50% inhibitory concentration (IC50) in the experiment with AGS and in the experiment with SW620 were 3.1 nM and 12 nM, respectively.
The like results for “(2S,4R)-1-((S)-2-(4-(5-((1-((1-(((7-(8-ethyl-7-fluoro-3-hydroxynaphthalen-1-yl)-8-fluoro-4-((R)-3-hydroxy-3-methylpiperidin-1-yl)pyrido[4,3-d]pyrimidin-2-yl)oxy)methyl)cyclopropyl)methyl) piperidin-4-yl)methyl)piperazin-2-yl)-1H-1,2,3-triazol-1-yl)-3-methylbutanoyl)-4-hydroxy-N-((S )-1-(4-(4-methylthiazol-5-yl)phenyl)ethyl)pyrrolidine-2-carboxamide [Compound 193]” were, in that order, 7.3 nM and 24 nM.
Turning to `CCc1c(F)ccc2cc(O)cc(-c3ncc4c(N5CCCC(C)(O)C5)nc(OCC5(CN6CCN(Cc7cc(-c8cn([C@H](C(=O)N9C[C@H](O)C[C@H]9C(=O)N[C@@H](C)c9ccc(-c%10scnc%10C)cc9)C(C)C)nn8)n(C)n7)CC6)CC5)nc4c3F)c12` (stereo partly shown) [Compound 202], the half-maximal inhibitory concentration (IC50) with AGS (setting [1]) came to 15 nM; in the experiment on SW620 (setting [2]), 54 nM.
Take “(2S,4R)-1-((S)-2-(4-(5-(3-(4-((1-((7-(8-ethyl-7-fluoro-3-hydroxynaphthalen-1-yl)-8-fluoro-4-((R )-3-hydroxy-3-methylpiperidin-1-yl)pyrido[4,3-d]pyrimidin-2-yl)oxy)methyl)cyclopropyl)methy l)piperazin-1-yl)azetidin-1-yl)pyrazin-2-yl)-1H-1,2,3-triazol-1-yl)-3-methylbutanoyl)-4-hydroxy -N-((R)-2-hydroxy-1-(4-(4-methylthiazol-5-yl)phenyl)ethyl)pyrrolidine-2-carboxamide [Compound 192]”: the figures for the IC50 in the experiment on AGS (setting [1]) and in the experiment on SW620 (setting [2]) were 3.2 nM and 17 nM, respectively.
With `C=C1CN2[C@H](COC(=O)N3CCC4(CC3)CC(C(=O)N[C@H](C(=O)N3C[C@H](O)C[C@H]3C(=O)N[C@@H](C)c3ccc(-c5scnc5C)cc3)C(C)(C)C)C4)CC[C@@]2(COc2nc(N3CCC[C@@](C)(O)C3)c3cnc(-c4cc(O)cc5ccc(F)c(CC)c45)c(F)c3n2)C1` [Compound 140], the half-inhibitory concentration (IC50) came out at 28 nM in the experiment with AGS and 167 nM with SW620.
Take `CCc1c(F)ccc2cc(O)cc(-c3ncc4c(N5CCC[C@@](C)(O)C5)nc(OCC5(CN6CCN(CCOc7cc([C@H](C(=O)N8C[C@H](O)C[C@H]8C(=O)N[C@@H](C)c8ccc(-c9scnc9C)cc8)C(C)C)on7)CC6)CC5)nc4c3F)c12` [Compound 175]: the IC50 with AGS (setting [1]) stood at 26 nM; in the experiment on SW620 (setting [2]), 70 nM.
Turning to `C=C1CN2[C@H](CN3CCC(c4cn([C@H](C(=O)N5C[C@H](O)C[C@H]5C(=O)N[C@@H](C)c5ccc(-c6scnc6C)cc5)C(C)C)nn4)CC3)CC[C@@]2(COc2nc(N3CCC[C@@](C)(O)C3)c3cnc(-c4cc(O)cc5ccc(F)c(CC)c45)c(F)c3n2)C1` [Compound 123], in the experiment with AGS (Homo sapiens, AGS, 96 h), the half-maximal inhibitory concentration (IC50) is 82 nM. At KRAS G12D, the DC50 worked out at 122 nM.
In the case of `CCc1c(F)ccc2cccc(-c3ncc4c(N5CCC[C@@](C)(O)C5)nc(OCC5(CN6CCC(Oc7cnc(-c8cn([C@H](C(=O)N9C[C@H](O)C[C@H]9C(=O)N[C@@H](C)c9ccc(-c%10scnc%10C)cc9)C(C)C)nn8)cn7)CC6)CC5)nc4c3F)c12` [Compound 201], the values for the half-maximal inhibitory concentration (IC50) with AGS (setting [1]) and in the experiment with SW620 (setting [2]) were 13 nM and 46 nM, respectively.
In the case of `CCc1c(F)ccc2cc(O)cc(-c3ncc4c(N5CCC[C@@](C)(O)C5)nc(OCC5(CN6CCC(Oc7cnc(-c8cn([C@H](C(=O)N9C[C@H](O)C[C@H]9C(=O)N[C@@H](CC(=O)NC)c9ccc(-c%10scnc%10C)cc9)C(C)C)nn8)cn7)CC6)CC5)nc4c3F)c12` [Compound 190, (2S,4R)-1-((S)-2-(4-(5-(1-((((7-(8-ethyl-7-fluoro-3-hydroxynaphthalen-1-yl)-8-fluoro-4-(((R)-3-hydroxy-3-methylpiperidin-1-yl)pyrido[4,3-d]pyrimidin-2-yl)oxy)methyl)cyclopropyl)methyl)piperidin-4-yl)oxy)-2-ylpyrazin-1H-1,2,3-triazol-1-yl)-3-methylbutanoyl)-4-hydroxy-N-((S)-3-(methylamino)-1-(4-(4-methylthiazol-5-yl)phenyl)-3-oxopropyl)pyrrolidine-2-carboxamide], the figures for the 50% inhibitory concentration (IC50) with AGS (setting [1]) and with SW620 (setting [2]) were 11 nM and 38 nM, respectively.
`CCc1c(F)ccc2cc(O)cc(-c3ncc4c(N5CCC[C@@](C)(O)C5)nc(OCC5(CN6CCC(N7CCC(c8cnc(-c9cn([C@H](C(=O)N%10C[C@H](O)C[C@H]%10C(=O)N[C@@H](C)c%10ccc(-c%11scnc%11C)cc%10)C(C)C)nn9)cn8)CC7)CC6)CC5)nc4c3F)c12` [Compound 195]: the concentration for half-maximal inhibition (IC50) with AGS (setting [1]) is 4.4 nM; with SW620 (setting [2]), 18 nM.
The like results for `CCc1c(F)ccc2cc(O)cc(-c3ncc4c(N5CCC[C@@](C)(O)C5)nc(OCC5(CN6CCC(OCc7cnc(-c8cn([C@H](C(=O)N9C[C@H](O)C[C@H]9C(=O)N[C@@H](C)c9ccc(-c%10scnc%10C)cc9)C(C)C)nn8)cn7)CC6)CC5)nc4c3F)c12` [Compound 198] were, in that order, 6.9 nM and 21 nM.
On to “(2S,4R)-1-((2S)-2-(4-(5-(1-(4-((1-(((7-(8-ethyl-7-fluoro-3-hydroxynaphthalen-1-yl)-8-fluoro-4-(( R)-3-hydroxy-3-methylpiperidin-1-yl)pyrido[4,3-d]pyrimidin-2-yl)oxy)methyl)cyclopropyl)meth yl)piperidin-1-yl)ethyl)piperidin-2-yl)-1H-1,2,3-triazol-1-yl)-3-methylbutanoyl)-4-hydroxy-N-(( S)-1-(4-(4-methylthiazol-5-yl)phenyl)ethyl)pyrrolidine-2-carboxamide [Compound 194]”, for which the results for the half-inhibitory concentration (IC50) with AGS and in the experiment with SW620 were 5.5 nM and 26 nM, respectively.
